Measurements: the supplement of paper PMC13380429

Experiments:
Conditions in all cases: 72 h
HepG2 [1] = assay: relative viability EC50 (midpoint between 100% and the lowest measured viability); higher = less toxic
Calu-3 [2] = assay: as above
U2OS [3] = assay: as above
Vero E6 [4] = assay: as above
HepG2 [5] = assay: cell viability relative to DMSO; higher = less toxic
Caco-2 [6] = assay: as above
Calu-3 [7] = assay: as above
U2OS [8] = assay: as above
Vero E6 [9] = assay: as above
HepG2 [10] = assay: drug sensitivity score (DSS) for viability; higher = more toxic; extreme values may be limits of the assay
Caco-2 [11] = assay: as above
Calu-3 [12] = assay: as above
U2OS [13] = assay: as above
Vero E6 [14] = assay: as above

| SMILES | relative viability EC50 (HepG2 [1]) [µM] | relative viability EC50 (Calu-3 [2]) [µM] | relative viability EC50 (U2OS [3]) [µM] | relative viability EC50 (Vero E6 [4]) [µM] | cell viability (HepG2 [5]; 1 nM) [%] | cell viability (HepG2 [5]; 10 nM) [%] | cell viability (HepG2 [5]; 100 nM) [%] | cell viability (HepG2 [5]; 1000 nM) [%] | cell viability (HepG2 [5]; 10000 nM) [%] | cell viability (Caco-2 [6]; 1 nM) [%] | cell viability (Caco-2 [6]; 10 nM) [%] | cell viability (Caco-2 [6]; 100 nM) [%] | cell viability (Caco-2 [6]; 1000 nM) [%] | cell viability (Caco-2 [6]; 10000 nM) [%] | cell viability (Calu-3 [7]; 1 nM) [%] | cell viability (Calu-3 [7]; 10 nM) [%] | cell viability (Calu-3 [7]; 100 nM) [%] | cell viability (Calu-3 [7]; 1000 nM) [%] | cell viability (Calu-3 [7]; 10000 nM) [%] | cell viability (U2OS [8]; 1 nM) [%] | cell viability (U2OS [8]; 10 nM) [%] | cell viability (U2OS [8]; 100 nM) [%] | cell viability (U2OS [8]; 1000 nM) [%] | cell viability (U2OS [8]; 10000 nM) [%] | cell viability (Vero E6 [9]; 1 nM) [%] | cell viability (Vero E6 [9]; 10 nM) [%] | cell viability (Vero E6 [9]; 100 nM) [%] | cell viability (Vero E6 [9]; 1000 nM) [%] | cell viability (Vero E6 [9]; 10000 nM) [%] | drug sensitivity score (HepG2 [10]) | drug sensitivity score (Caco-2 [11]) | drug sensitivity score (Calu-3 [12]) | drug sensitivity score (U2OS [13]) | drug sensitivity score (Vero E6 [14]) |
| --- | --- | --- | --- | --- | --- | --- | --- | --- | --- | --- | --- | --- | --- | --- | --- | --- | --- | --- | --- | --- | --- | --- | --- | --- | --- | --- | --- | --- | --- | --- | --- | --- | --- | --- |
| CN1CCN(c2c(F)cc3c(=O)c(C(=O)O)cn4c3c2SCC4)CC1 [rufloxacin] | > 10 | > 10 | > 10 | > 10 | 98.9 | 99.5 | 104 | 103 | 92.2 | 95.1 | 105 | 93.9 | 91.7 | 73.8 | 92.1 | 103 | 97.5 | 84.4 | 101 | 99.8 | 100 | 94.7 | 104 | 96.8 | 99.9 | 101 | 96.4 | 101 | 95.7 | 0 | 1.7 | 0 | 0 | 0 |
| Cc1cnc(C(=O)NCCc2ccc(S(=O)(=O)NC(=O)NC3CCCCC3)cc2)cn1 [glipizide] | – | – | – | – | – | – | – | – | – | – | – | – | – | – | – | – | – | – | – | – | – | – | – | – | – | – | – | – | – | 0 | – | 0 | 0 | 0 |
| O=C1C2CCN(CC2)C1(CO)CO [PRIMA1] | > 10 | > 10 | – | > 10 | 94.5 | 97.6 | 81 | 97.9 | 104 | 95.1 | 91.6 | 102 | 96.3 | 66.9 | 105 | 99 | 103 | 87.6 | 95.7 | 98.8 | 95.7 | 101 | 98.1 | 70 | 87 | 92.6 | 89.6 | 94.2 | 99.5 | 0 | 2.1 | 0.6 | 1.6 | 0 |
| CC(=O)c1ccc2c(c1)C(=O)C1(CC1)O2 [spizofurone] | – | – | – | – | – | – | – | – | – | – | – | – | – | – | – | – | – | – | – | – | – | – | – | – | – | – | – | – | – | 0 | – | 0 | 0 | 0 |
| COc1cc(C=O)c([N+](=O)[O-])cc1OC [DMNB] | – | > 10 | – | > 10 | – | – | – | – | – | – | – | – | – | – | 102 | 102 | 103 | 96.9 | 107 | – | – | – | – | – | 103 | 100 | 99.2 | 96.9 | 96.6 | – | – | 0 | – | 0 |
| O=C(/C=C\n1cnc(-c2cc(C(F)(F)F)cc(C(F)(F)F)c2)n1)N1CC(F)(F)C1 [KPT-276] | 0.19 | – | 1.3 | 0.611 | 100 | 85.5 | 80 | 44.4 | 32.8 | 104 | 91.2 | 88.8 | 73.9 | 66.2 | 97.3 | 102 | 97.2 | 64.1 | 68.3 | 106 | 96 | 91.4 | 68 | 17.3 | 93.5 | 96.1 | 82.3 | 69.8 | 36.9 | 12.8 | 5.4 | 6.7 | 8.2 | 8.1 |
| C[C@H]1O[C@@H](n2cc(F)c(=O)[nH]c2=O)[C@H](O)[C@@H]1O [doxifluridine] | – | > 10 | > 10 | > 10 | 96.6 | 96.1 | 76.3 | 108 | 56.6 | 82.5 | 106 | 93.3 | 99.3 | 65.6 | 98.6 | 116 | 91.3 | 98.9 | 90.9 | 99.9 | 99.4 | 100 | 101 | 90.6 | 108 | 96.1 | 103 | 105 | 87.5 | 1.8 | 1.7 | 0 | 0 | 0 |
| CNC(=O)c1ccccc1Nc1cc(Nc2ccc(N3CCOCC3)cc2OC)ncc1C(F)(F)F [VS-4718] | 1.12 | – | 1.5 | – | 98.6 | 93.2 | 99.1 | 65 | 19.3 | 102 | 91.8 | 96.4 | 82.5 | 62.5 | 108 | 97 | 86.4 | 68.3 | 74.5 | 98.5 | 94.2 | 95.2 | 82.1 | 35.1 | 103 | 101 | 85.8 | 69.2 | 54.4 | 9 | 3.6 | 6.6 | 6.2 | 7 |
| CCCCCS(=O)(=O)CCCCCCCCCCn1c(-c2ccc(O)cc2)c(C)c2cc(O)ccc21 | 2.77 | > 10 | > 10 | > 10 | 104 | 92.3 | 98.5 | 96.6 | 33.8 | 86.2 | 98.7 | 97.7 | 96.8 | 55.5 | 101 | 98.3 | 100 | 106 | 76.5 | 99.2 | 96.6 | 100 | 101 | 91.5 | 95 | 99.3 | 100 | 98.1 | 77.6 | 4.1 | 2.8 | 0.6 | 0 | 1 |
| Cc1n[nH]c(C)c1Cc1sc2c(c1C(=O)N1C[C@H](O)CO1)c(=O)n(C)c(=O)n2CC(C)C | > 10 | > 10 | > 10 | > 10 | 97 | 108 | 95 | 98.8 | 109 | 91.3 | 79.3 | 77.2 | 67.4 | 69 | 102 | 86.3 | 99.4 | 93.3 | 99.8 | 97.8 | 92.6 | 89.4 | 86.7 | 89.7 | 89.7 | 98.7 | 92.9 | 95.7 | 101 | 0 | 10.2 | 0 | 1.2 | 0 |
| CN1CCN(c2ccc3nc(-c4c(N)c5c(F)cccc5[nH]c4=O)[nH]c3c2)CC1 [dovitinib] | 0.923 | > 10 | 2.88 | 0.794 | 115 | 96.8 | 102 | 60.8 | 28.8 | 98.4 | 101 | 87.5 | 85.7 | 61.8 | 93.8 | 97.7 | 98.6 | 93.7 | 81.9 | 99 | 99.5 | 93.5 | 97.8 | 42.3 | 97.4 | 96.5 | 99.6 | 63.2 | 42.1 | 8.7 | 3.6 | 0.9 | 3.4 | 7.5 |
| CC(=O)/N=c1/[nH]c(C)c(-c2ccc(Cl)c(S(=O)(=O)NCCO)c2)s1 [PIK-93] | 0.745 | 1.49 | – | > 10 | 91.8 | 92.7 | 83.9 | 71.6 | 34.7 | 94 | 109 | 92.5 | 93.5 | 58.9 | 103 | 102 | 91 | 81.2 | 41.9 | 102 | 106 | 98.1 | 90.8 | 58.6 | 106 | 105 | 99 | 96.9 | 78.6 | 7.8 | 3.2 | 5.3 | 3.6 | 1.1 |
| O=C(CC(c1ccccc1)c1ccccc1)N1CCN(C(c2ccccc2)c2ccccc2)CC1 [Z160] | – | > 10 | > 10 | > 10 | 88.7 | 104 | 88.5 | 95.6 | 57.7 | 99.9 | 103 | 97.1 | 92.9 | 67.8 | 104 | 92.8 | 104 | 93.9 | 114 | 101 | 99 | 99.1 | 97.2 | 88.6 | 93.7 | 99.1 | 94.9 | 99.8 | 100 | 2.9 | 2.6 | 0 | 0.1 | 0 |
